The values below come from ChEMBL document CHEMBL1649380, “Prediction of drug intestinal absorption by new linear and non-linear QSPR” (Eur J Med Chem, 2011).

SMILES strings stand for the structures.

The nature of the data set: Drug absorption in human assessed as human intestinal absorption rate. Type of data set: ADME, tissue-based, Intestine.
For the compound `CCCCC(=O)N(Cc1ccc(-c2ccccc2-c2nnn[nH]2)cc1)[C@H](C(=O)O)C(C)C`, the “log10(%HIA +10)” value was 1.813. In the case of `CCOC(=O)[C@H](CCc1ccccc1)N[C@@H](C)C(=O)N1[C@H](C(=O)O)C[C@@H]2CCC[C@@H]21`, the “log10(%HIA +10)” value turned out to be 1.845.

`COc1ccccc1N1CCN(CCCNc2cc(=O)n(C)c(=O)n2C)CC1`: the “log10(%HIA +10)” value turned out to be 1.945.

Turning to `Cc1cccc(C)c1NC(=O)NCCCNC(C)C`, the “log10(%HIA +10)” value is 1.909. `CCN(CC)C(=S)SSC(=S)N(CC)CC`: the “log10(%HIA +10)” value is listed as 2.029. Turning to `CC(=O)NCCCS(=O)(=O)O` [ACAMPROSATE], the “log10(%HIA +10)” value was 1.322. Regarding `C[C@H]1O[C@H](O[C@H]2[C@H](O)[C@@H](O)[C@@H](O[C@H]3[C@H](O)[C@@H](O)C(O)O[C@@H]3CO)O[C@@H]2CO)[C@H](O)[C@@H](O)[C@@H]1N[C@H]1C=C(CO)[C@@H](O)[C@H](O)[C@H]1O` (stereo partly specified) [ACARBOSE], the “log10(%HIA +10)” value was 1.079. With `CCCC(=O)Nc1ccc(OCC(O)CNC(C)C)c(C(C)=O)c1` (stereo unspecified) [ACEBUTOLOL], the “log10(%HIA +10)” value came out at 1.999.

For `CC(=O)Nc1ccc(O)cc1` [ACETAMINOPHEN], the “log10(%HIA +10)” value is 1.978. With `Nc1ncnc2c1ncn2CCOCP(=O)(O)O` [ADEFOVIR], the “log10(%HIA +10)” value worked out at 1.342. Take `C=CCNc1nc(NCC=C)nc(N2CCN(C(c3ccc(F)cc3)c3ccc(F)cc3)CC2)n1` [ALMITRINE]: the “log10(%HIA +10)” value is recorded as 2. `CN(C)CCc1c[nH]c2ccc(CS(=O)(=O)N3CCCC3)cc12` [ALMOTRIPTAN]: the “log10(%HIA +10)” value worked out at 1.929. `C=CCc1ccccc1OCC(O)CNC(C)C` (stereo unspecified) [ALPRENOLOL]: the “log10(%HIA +10)” value came out at 2.016.

On to `N=C(N)NC(=O)c1nc(Cl)c(N)nc1N` [AMILORIDE], for which the “log10(%HIA +10)” value turned out to be 1.778. To `Cc1c(N(C)C)c(=O)n(-c2ccccc2)n1C` [AMINOPYRINE] belongs 2.041; to `CC1(C)S[C@@H]2[C@H](NC(=O)[C@H](N)c3ccc(O)cc3)C(=O)N2[C@H]1C(=O)O` [AMOXICILLIN], 2.016; to `C[C@@H]1[C@H](O)[C@@H](C)/C=C/C=C/C=C/C=C/C=C/C=C/C=C/[C@H](O[C@@H]2O[C@H](C)[C@@H](O)[C@H](N)[C@@H]2O)C[C@@H]2O[C@](O)(C[C@@H](O)C[C@@H](O)[C@H](O)CC[C@@H](O)C[C@@H](O)CC(=O)O[C@H]1C)C[C@H](O)[C@H]2C(=O)O` [AMPHOTERICIN B], 1.176. As to `N#C[C@H](O[C@@H]1O[C@H](CO[C@@H]2O[C@H](CO)[C@@H](O)[C@H](O)[C@H]2O)[C@@H](O)[C@H](O)[C@H]1O)c1ccccc1` [AMYGDALIN], the “log10(%HIA +10)” value is 1.176. As for `O=C1CN2Cc3c(ccc(Cl)c3Cl)N=C2N1` [ANAGRELIDE], the “log10(%HIA +10)” value was 1.903.

As for `Cc1cc(=O)n(-c2ccccc2)n1C` [ANTIPYRINE], the “log10(%HIA +10)” value was 2.041. In the case of `NCC[C@H](O)C(=O)N[C@@H]1C[C@H](N)[C@@H](O[C@H]2O[C@H](CN)CC[C@H]2N)[C@H](O)[C@H]1O[C@H]1O[C@H](CO)[C@@H](O)[C@H](N)[C@H]1O` [ARBEKACIN], the “log10(%HIA +10)” value is listed as 1. For `CC(=O)Oc1ccccc1C(=O)O` [ASPIRIN] the value was 2.041; for `CC(C)NCC(O)COc1ccc(CC(N)=O)cc1` (stereo unspecified) [ATENOLOL], 1.785; for `CN1[C@@H]2CC[C@H]1C[C@@H](OC(=O)C(CO)c1ccccc1)C2` (stereo partly specified) [ATROPINE], 2.033. For the compound `CC[C@H]1OC(=O)[C@H](C)[C@@H](O[C@H]2C[C@@](C)(OC)[C@@H](O)[C@H](C)O2)[C@H](C)[C@@H](O[C@@H]2O[C@H](C)C[C@H](N(C)C)[C@H]2O)[C@](C)(O)C[C@@H](C)CN(C)[C@H](C)[C@@H](O)[C@]1(C)O` [AZITHROMYCIN], the “log10(%HIA +10)” value is 1.663. For the compound `CC1(C)S[C@@H]2[C@H](NC(=O)[C@H](NC(=O)N3CCNC3=O)c3ccccc3)C(=O)N2[C@H]1C(=O)O` [AZLOCILLIN], the “log10(%HIA +10)” value came to 1.
